Experimental data from patent US10975037B2 (priority 2018, dated 2021).
Structures can show the parent of a compound that is named as a salt. Where two headings read alike, the source gives them in different places.

What was measured:
[1] = biological target: human RORγt ligand binding domain (RORγt LBD) (Homo sapiens (Human), UniProt P51449); experiment: RORγt ThermoFluor® assay (thermal shift binding)
Method in brief: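 Thermal shift with 0.065 mg/mL RORγt LBD and 60 μM 1,8-ANS in 100 mM Hepes pH 7.0, 10 mM NaCl, 2.5 mM GSH, 0.002% Tween-20.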

full-length human RORγt = full-length human RORγt (Homo sapiens (Human), UniProt P51449); experiment: RORγt (full-length human) reporter assay, conditions A or B, HEK293T cells; type: cell-based; settings: for inhibition at 6 µM: read-out: RORγt (FL) Reporter Assay A or B, % inhibition @ 6 μM, 6 μM compound concentration; for IC50: RORγt (FL) Reporter Assay A or B, IC50, HEK293T cells; for inhibition at 3 µM: 3 μM compound concentration (footnote *)
Method in brief: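 After 16–20 h, dual firefly/Renilla luciferase luminescence was read. Firefly signal was normalized to DMSO and saturating reference compound, then to Renilla, and fitted for IC50; % inhibition is versus DMSO.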

[2] = system: IL-17 production by CD4 T cells under conditions which favor Th17 differentiation; experiment: Human Th17 assay (IL-17 production by CD4 T cells); type: cell-based
Protocol: The human Th17 assay tests the effect of RORγt modulatory compounds on IL-17 production by CD4 T cells under conditions which favor Th17 differentiation. Total CD4^+ T cells were isolated from the peripheral blood mononuclear cells (PBMC) of healthy donors using a CD4^+ T cell isolation kit II, following the manufacturer's instructions (Miltenyi Biotec). […] 50 μL of compound at titrated concentrations in DMSO were added into each well at final DMSO concentration at 0.2%. Cells were incubated for 1 hour, then 50 μL of Th17 cell differentiation medium was added to each well. […] Cells were cultured at 37° C. and 5% CO2 for 3 days. Supernatants were collected and the accumulated IL-17 in culture was measured by using MULTI-SPOT® Cytokine Plate following manufacture's instruction (Meso Scale Discovery). The plate was read using Sector Imager 6000, and IL-17 concentration was extrapolated from the standard curve. The IC50s were determined by GraphPad.

[3] = read-out: ThermoFluor® Assay, Kd
[4] = Homo sapiens, CD4+ T; read-out: Human Th17 Assay, IC50
[5] = HEK-293T, 2 μM compound concentration, read-out: RORγt (FL) Reporter Assay A or B, % inhibition
[6] = HEK-293T, read-out: RORγt (FL) Reporter Assay A or B, % inhibition
[7] = HEK-293T, 0.67 μM compound concentration (footnote ****), read-out: RORγt (FL) Reporter Assay A or B, % inhibition

full-length human RORγt, sequence (P51449 other isoform, or with tags, fused parts or gaps): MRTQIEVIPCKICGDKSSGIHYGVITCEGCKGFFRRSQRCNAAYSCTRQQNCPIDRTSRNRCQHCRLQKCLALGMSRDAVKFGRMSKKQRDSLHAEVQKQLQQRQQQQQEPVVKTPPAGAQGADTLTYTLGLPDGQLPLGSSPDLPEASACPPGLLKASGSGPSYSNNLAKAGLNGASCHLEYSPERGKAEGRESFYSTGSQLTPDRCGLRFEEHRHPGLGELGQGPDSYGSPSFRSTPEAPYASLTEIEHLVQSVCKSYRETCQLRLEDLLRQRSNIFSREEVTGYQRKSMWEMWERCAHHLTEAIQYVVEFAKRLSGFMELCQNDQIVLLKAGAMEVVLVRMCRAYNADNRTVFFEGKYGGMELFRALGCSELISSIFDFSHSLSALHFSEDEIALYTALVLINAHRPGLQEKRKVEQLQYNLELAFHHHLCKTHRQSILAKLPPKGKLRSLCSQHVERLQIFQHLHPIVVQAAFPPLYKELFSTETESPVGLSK
human RORγt ligand binding domain (RORγt LBD), sequence (P51449 other isoform, or with tags, fused parts or gaps): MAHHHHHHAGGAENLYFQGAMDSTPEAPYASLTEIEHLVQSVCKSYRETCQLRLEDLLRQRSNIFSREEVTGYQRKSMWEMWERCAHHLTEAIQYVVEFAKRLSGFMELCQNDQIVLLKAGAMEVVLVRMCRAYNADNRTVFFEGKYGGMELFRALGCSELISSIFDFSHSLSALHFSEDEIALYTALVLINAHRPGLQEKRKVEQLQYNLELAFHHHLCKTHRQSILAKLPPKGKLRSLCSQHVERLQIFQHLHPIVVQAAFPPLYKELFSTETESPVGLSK

SMILES	Kd [1, 3]	IC50 (full-length human RORγt)	IC50 [2, 4]	further results
CCn1nc(C(=O)NC[C@H]2CC[C@H](S(C)(=O)=O)CC2)c(F)c1-c1ccc(N[C@H](C)C(F)(F)F)cc1OC [Example 203, 1-Ethyl-4-fluoro-5-(2-methoxy-4-(((R)-1,1,1-trifluoropropan-2-yl)amino)phenyl)-N-(((1r,4R)-4-(methylsulfonyl)cyclohexyl)methyl)-1H-pyrazole-3-carboxamide]	17 nM	130 nM	39 nM	inhibition at 6 µM (full-length human RORγt; HEK-293T): 105%
CCn1nc(C(=O)NC[C@H]2CC[C@H](S(C)(=O)=O)CC2)c(Cl)c1-c1ccc(N[C@H](C)C(F)(F)F)cc1OC [Example 23, 4-chloro-1-ethyl-5-(2-methoxy-4-(((R)-1,1,1-trifluoropropan-2-yl)amino)phenyl)-N-(((1 r,4R)-4-(methylsulfonyl)cyclohexyl)methyl)-1H-pyrazole-3-carboxamide]	4.6 nM	28 nM	38 nM	inhibition at 2 µM (full-length human RORγt; [5]): 104%
CCn1nc(C(=O)NC[C@]2(CO)CC[C@@H](S(C)(=O)=O)CC2)c(Cl)c1-c1ccc(CC(C)C(F)(F)F)cc1OC (stereo partly shown) [Example 92, 4-Chloro-1-ethyl-N-(((1s*,4s*)-1-(hydroxymethyl)-4-(methylsulfonyl)cyclohexyl)methyl)-5-(2-methoxy-4-(3,3,3-trifluoro-2-methylpropyl)phenyl)-1H-pyrazole-3-carboxamide]	39 nM	66 nM	270 nM	inhibition at 0.67 µM (full-length human RORγt; [6]): 87%
Cc1c(C(=O)NC[C@]2(O)CC[C@@H](S(C)(=O)=O)CC2)nn(C)c1-c1ccc(CCCC(F)(F)F)cc1OC(F)F [Example 161, 5-(2-(Difluoromethoxy)-4-(4,4,4-trifluorobutyl)phenyl)-N-(((1s,4s)-1-hydroxy-4-(methylsulfonyl)cyclohexyl)methyl)-1,4-dimethyl-1H-pyrazole-3-carboxamide]	32 nM	7.8 nM	200 nM	inhibition at 3 µM (full-length human RORγt; [6]): 81%
CCn1nc(C(=O)NC[C@]2(O)CC[C@@H](S(C)(=O)=O)CC2)c(Cl)c1-c1ccc(CC(C)(C)C(F)(F)F)cc1OC(F)F [Example 132, 4-Chloro-5-(2-(difluoromethoxy)-4-(3,3,3-trifluoro-2,2-dimethylpropyl)phenyl)-1-ethyl-N-(((1s,4s)-1-hydroxy-4-(methylsulfonyl)cyclohexyl)methyl)-1H-pyrazole-3-carboxamide]	0.45 nM	8.1 nM		inhibition at 2 µM (full-length human RORγt; [6]): 99%; IC50 ([2]; Homo sapiens, CD4+ T, read-out: Human Th17 Assay, IC50): 6 nM
CCn1nc(C(=O)NC[C@]2(O)CC[C@@H](S(N)(=O)=O)CC2)c(Cl)c1-c1ccc(CC(C)(C)C(F)(F)F)cc1OC(F)F [Example 62, 4-Chloro-5-(2-(difluoromethoxy)-4-(3,3,3-trifluoro-2,2-dimethylpropyl)phenyl)-1-ethyl-N-(((1s,4s)-1-hydroxy-4-sulfamoylcyclohexyl)methyl)-1H-pyrazole-3-carboxamide]	0.78 nM	12 nM	36 nM	inhibition at 3 µM (full-length human RORγt; [6]): 120%
CCn1nc(C(=O)NC[C@H]2CC[C@H](S(C)(=O)=O)CC2)c(C)c1-c1ccc(CC(C)(C)C(F)(F)F)cc1OC [Example 227, 1-Ethyl-5-(2-methoxy-4-(3,3,3-trifluoro-2,2-dimethylpropyl)phenyl)-4-methyl-N-(((1r,4r)-4-(methylsulfonyl)cyclohexyl)methyl)-1H-pyrazole-3-carboxamide]	1.1 nM	9 nM	14 nM	inhibition at 0.67 µM (full-length human RORγt; [7]): 92%
CCn1nc(C(=O)NC[C@]2(C#N)CC[C@@H](S(C)(=O)=O)CC2)c(Cl)c1-c1ccc(N[C@H](C)C(F)(F)F)cc1OC [Example 32, 4-Chloro-N-(((1s,4S)-1-cyano-4-(methylsulfonyl)cyclohexyl)methyl)-1-ethyl-5-(2-methoxy-4-(((R)-1,1,1-trifluoropropan-2-yl)amino)phenyl)-1H-pyrazole-3-carboxamide]	7.6 nM	53 nM	62 nM	inhibition at 2 µM (full-length human RORγt; [6]): 96%
CCn1nc(C(=O)NC[C@]2(O)CC[C@@H](S(C)(=O)=O)C[C@H]2O)c(Cl)c1-c1ccc(C[C@H](C)C(F)(F)F)cc1OC(F)F (stereo in doubt) [Example 53, 4-Chloro-5-(2-(difluoromethoxy)-4-((S*)-3,3,3-trifluoro-2-methylpropyl)phenyl)-N-(((1R*,2R*,4R*)-1,2-dihydroxy-4-(methylsulfonyl)cyclohexyl)methyl)-1-ethyl-1H-pyrazole-3-carboxamide]		6.3 nM	13 nM	Kd ([1]; ThermoFluor® Assay, Kd): 1.6 nM; inhibition at 1 µM (full-length human RORγt; HEK-293T, 1 μM compound concentration (footnote ***), read-out: RORγt (FL) Reporter Assay A or B, % inhibition): 99%
CCn1nc(C(=O)NC[C@]2(N)CC[C@@H](S(C)(=O)=O)CC2)c(Cl)c1-c1ccc(CC(C)(C)C(F)(F)F)cc1OC(F)F [Example 19, N-(((1s*,4s*)-1-Amino-4-(methylsulfonyl)cyclohexyl)methyl)-4-chloro-5-(2-(difluoromethoxy)-4-(3,3,3-trifluoro-2,2-dimethylpropyl)phenyl)-1-ethyl-1H-pyrazole-3-carboxamide 2,2,2-trifluoroacetic acid salt]			14 nM	inhibition at 3 µM (full-length human RORγt; [6]): 122%
CCn1nc(C(=O)NC[C@H]2CC[C@H](S(C)(=O)=O)CC2)c(Cl)c1-c1ccc(CC(C)(C)C(F)(F)F)cc1OC [Example 44, 4-chloro-1-ethyl-5-(2-methoxy-4-(3,3,3-trifluoro-2,2-dimethylpropyl)phenyl)-N-(((1r,4r)-4-(methylsulfonyl)cyclohexyl)methyl)-1H-pyrazole-3-carboxamide]			5.2 nM	inhibition at 0.67 µM (full-length human RORγt; [7]): 96%
CCn1nc(C(=O)NC[C@H]2CC[C@H](S(C)(=O)=O)CC2)c(Cl)c1-c1ccc(OC(C)C(F)(F)F)cc1OC (stereo partly shown) [Example 212, 4-Chloro-1-ethyl-5-(2-methoxy-4-((1,1,1-trifluoropropan-2-yl)oxy)phenyl)-N-(((1r,4r)-4-(methylsulfonyl)cyclohexyl)methyl)-1H-pyrazole-3-carboxamide]	7.4 nM	33 nM		inhibition at 2 µM (full-length human RORγt; [5]): 81%
Cn1nc(C(=O)NC[C@]2(O)CC[C@@H](S(C)(=O)=O)CC2)c(Cl)c1-c1ccc(CC(C)(C)C(F)(F)F)cc1OC(F)F [Example 154, 4-Chloro-5-(2-(difluoromethoxy)-4-(3,3,3-trifluoro-2,2-dimethylpropyl)phenyl)-N-(((1s,4s)-1-hydroxy-4-(methylsulfonyl)cyclohexyl)methyl)-1-methyl-1H-pyrazole-3-carboxamide]	0.79 nM	4.5 nM		inhibition at 0.67 µM (full-length human RORγt; [7]): 91%
CCn1nc(C(=O)NC[C@]2(O)CC[C@@H](S(C)(=O)=O)CC2)c(Cl)c1-c1ccc(CCC(F)(F)F)cc1OC [Example 39, 4-Chloro-1-ethyl-N-(((1s,4s)-1-hydroxy-4-(methylsulfonyl)cyclohexyl)methyl)-5-(2-methoxy-4-(3,3,3-trifluoropropyl)phenyl)-1H-pyrazole-3-carboxamide]	10 nM	38 nM		inhibition at 6 µM (full-length human RORγt; HEK-293T): 85%
CCn1nc(C(=O)NC[C@@]2(O)CC[C@@H](S(C)(=O)=O)C[C@@H]2O)c(Cl)c1-c1ccc(CC(C)(C)C(F)(F)F)cc1OC(F)F (single isomer, unassigned) [Example 49, 4-Chloro-5-(2-(difluoromethoxy)-4-(3,3,3-trifluoro-2,2-dimethylpropyl)phenyl)-N-(((1S*,2S*,4R*)-1,2-dihydroxy-4-(methylsulfonyl)cyclohexyl)methyl)-1-ethyl-1H-pyrazole-3-carboxamide]		61 nM		Kd ([1]; ThermoFluor® Assay, Kd): 26 nM; inhibition at 2 µM (full-length human RORγt; [5]): 96%
CCn1nc(C(=O)NC[C@H]2CC[C@@H](S(C)(=O)=O)CO2)c(Cl)c1-c1ccc(N[C@H](C)C(F)(F)F)cc1OC (relative stereo) [Example 17, 4-Chloro-1-ethyl-5-(2-methoxy-4-(((R)-1,1,1-trifluoropropan-2-yl)amino)phenyl)-N-(((2R*,5R*)-5-(methylsulfonyl)tetrahydro-2H-pyran-2-yl)methyl)-1H-pyrazole-3-carboxamide]		2200 nM		Kd ([1]; ThermoFluor® Assay, Kd): 1300 nM; inhibition at 6 µM (full-length human RORγt; HEK-293T): 67%
